What is called half-life is the time needed for the level to fall by half in the phase considered.

Five molecules from US12427212B2, “Nectin-4 binding miniproteins, conjugates and uses thereof” (Aktis Oncology, Inc., priority 2023, dated 2025) can be followed below.

One series deals with HT-1376 cells. As to the kind of experiment: Internalization assay of indium-111 radiolabeled conjugate, HT-1376. Particulars: 37° C. or 4° C., 1 h. It counts as cell-based, human. As for the experimental part: (§1) Internalization was assessed for indium-111 radiolabeled C215 in HT-1376 and MCF7 cells. Cells were incubated in the presence of radioligand or radioligand plus 1000 times excess unlabeled compound (C215) at 37° C., or 4° C. for 1 h. At the end of incubation cells were washed four times with PBS and membrane bound radioligand was removed by three 0.5% trypsin washes. Cell suspensions were washed three times by method of centrifugation and removal of supernatant. Internalized radioactivity was measured by gamma counting cell pellets and cell number was determined by counting cells on an automatic cell counter. […] C215, in HT-1376 (FIG. 6A) and MCF7 cell lines (FIG. 6B).

A further series concerns MCF7 cells. The series can be described thus: Internalization assay of indium-111 radiolabeled conjugate, MCF7. It counts as cell-based, human. Particulars: 37° C. or 4° C., 1 h. How it is done: as §1
Series [1] has as its system HT-1376 urothelial cancer cells. The series can be described thus: In vitro cell cytotoxicity assay of 225Ac-radioconjugates (CellTiter-Glo). The class given is cell-based, human. The following applies: compound radiolabeled with 225Ac, 24 h treatment, 4-5 day regrowth, HT-1376 cells. How it is done:
Cytotoxicity to ^225Ac-radioconjugates was assessed in HT-1376 urothelial cancer cells. Cells were seeded in 96-well plates at densities of 250 to 1000 cells per well two days prior to treatment. On the day of treatment ^225Ac-radioconjugates were diluted in culture medium to concentrations ranging from 0,0001 to 100 μCi/mL and treatment solutions were incubated with cells for 24 h. At the end of the treatment period, the treatment solution was removed, and fresh culture medium was replenished for the regrowth period of the assay that lasted 4-5 day's. At the end of the regrowth period the culture medium was removed and viability was assessed by CellTiter-Glo (Promega, Waltham MA) luminescent assay and the plates were read on a Perkin Elmer Enspire multimode plate reader. Data were normalized to treatment controls and plotted as non-linear sigmoidal dose response curves to determine the effective concentration for 50% reduction in cell viability.
For orientation: ATP-based viability assays read luminescence as a measure of living cells.

Series [2] is described as follows: Thermal stability assay, 75° C., HPLC. It counts as physicochemical. Particulars: 1 mg/mL, 0.9% saline solution. As for the experimental part:
The thermal stability of an exemplary compound, C215, was analyzed at a concentration of 1 mg/mL at 75° C., in 0.9% saline solution. A heating plate was set to 75° C. and the sample was heated for a period of one h. The vial was shaken prior to collecting 10 μL aliquots at 5, 10, 15, 30, and 60 minute time intervals. The % parent remaining was analyzed by HPLC using the following system and method: Analytical Agilent 1100 HPLC system using a 4.6×250 mm, 300 Angstrom. BEH300, 5 μm, Xbridge C18 column at 1.0 mL/min. The solvent system consisted of A=Water+0.1% TFA, B=Acetonitrile+0.1% TFA. The gradient consisted of 5% to 70% B over 15 minutes, then the column was washed and equilibrated to initial conditions.

The nature of series [3]: In vitro metabolic stability in serum/plasma (percent parent remaining, LC-MS). The class given is in vitro ADME. The following applies: mouse. As for the experimental part: Exemplary miniproteins were spiked into biological matrices at initial concentration between 1-2 μM. Tested matrices were varied by species (mouse, rat, human) and type (plasma, serum, and kidney brush border membrane (kBBM) preparations tested each from 0.625-100 μg/mL protein content). Tested conditions were incubated with miniproteins at 37° C. for 4 h. At collection points of 0, 15, 30, 60, 120, 240 minutes, 50 μL of each condition were quenched by organic solvent (methanol or acetonitrile) or the addition of 4% phosphoric acid solution followed by solid-phase extraction. Fractions of each quenched timepoint were subsequently assayed for parent miniproteins concentration by high resolution LC-MS. Percent-parent-remaining-time plots were constructed from the ratio of each given time collection to the time-zero parent miniprotein. Percent-parent-remaining in mouse serum and plasma for exemplary miniproteins are recorded in TABLE 11.

Series [4] can be described thus: In vivo biodistribution of 111In-labeled miniproteins by SPECT/CT, HT-1376 xenograft. Set-up: species or system mouse. The following applies: female, athymic nude, mouse, in vivo. In a few lines: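 Mice bearing HT-1376 (Nectin-4-expressing human) xenografts imaged by SPECT/CT after 111In-labeled miniprotein dosing. SPECT reported as activity; per-subject maximum intensity projections scaled in % ID/g at each time point.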

Series [5] is described as follows: Biodistribution of radiolabeled miniprotein conjugates by SPECT/CT, HT-1376-OE xenograft. Particulars: female, mouse, in vivo, iv, Kidneys; for tissue uptake at 4 h: 4 h (% ID/g) Average; for tissue uptake at 22 h: 22 h (% ID/g) Average. How it is done: 6-8 week old female mice were engrafted through subcutaneous injection with cultured 3.0×10^6 HT-1376-OE cells (1:1—Cells:Matrigel). HT-1376-OE is a model cell line that highly expresses Nectin-4. Fourteen (14) days later, the mice were each dosed with a radiolabeled miniprotein, for example at a dose of ˜350 μCi/3.5 μg miniprotein. SPECT and/or CT imaging of the mice was done at timepoints between 15 min to 24 h after the administration of the injected dose, such as 4 h and 22 h (static scanning). Initial SPECT and/or CT rapid dynamic scanning was done at time points between 15 min and 75 min after the administration of the injected dose. For each miniprotein tested, a group of three mice were used, as summarized below in TABLE 16A.

The target of series [6] is T1, Nectin-4 (Homo sapiens, UniProt Q96NY8).
T1 sequence (Q96NY8 32-510): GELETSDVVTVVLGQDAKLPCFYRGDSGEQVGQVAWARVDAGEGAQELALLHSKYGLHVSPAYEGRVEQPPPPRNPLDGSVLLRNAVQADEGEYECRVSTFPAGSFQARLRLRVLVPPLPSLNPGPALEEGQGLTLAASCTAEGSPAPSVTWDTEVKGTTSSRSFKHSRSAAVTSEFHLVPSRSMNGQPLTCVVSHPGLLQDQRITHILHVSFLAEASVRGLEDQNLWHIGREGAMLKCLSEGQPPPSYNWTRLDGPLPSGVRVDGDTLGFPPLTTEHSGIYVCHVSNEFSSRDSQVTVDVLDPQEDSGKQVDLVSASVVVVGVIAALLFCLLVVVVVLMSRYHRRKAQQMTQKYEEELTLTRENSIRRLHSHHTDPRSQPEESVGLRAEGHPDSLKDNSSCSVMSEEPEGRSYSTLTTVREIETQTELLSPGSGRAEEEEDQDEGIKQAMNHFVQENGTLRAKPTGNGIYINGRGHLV
As to the kind of experiment: Flow cytometry binding to Nectin-4-expressing (HT-1376-P) and knockout (HT-1376-KO) cells. The class given is cell-based. Particulars: biotinylated miniprotein. As for the experimental part:
Fluorescent imaging for Nectin-4 binding was conducted using assays as described in Example 3. Briefly. Nectin-4 knockout HT-1376 cells were generated via CRISPR/Cas9 mediated gene deletion followed by single cell cloning. […] Flow cytometry was performed to measure on-target binding to cell surface Nectin-4.

Series [7] has as its system un-transfected HEK293 cells. The series can be described thus: Background binding to un-transfected HEK293 cells (cell microarray suitability). It counts as cell-based, human. The following applies: biotin-labeled molecules. As for the experimental part:
To evaluate potential off-target binding, six biotin-labeled molecules were tested in a cell microarray platform having 6,416 different human proteins spanning diverse functions and subcellular locations.

Series [8] addresses T1, Nectin-4. The series can be described thus: DELFIA competitive binding assay (Ki) against Eu-labeled C307 on HT-1376 cells. The following applies: in the presence of europium-labeled C307. As for the experimental part: A competition binding assay was utilized to determine the Ki for miniproteins bound to Nectin-4 expressed on the surface of cancer cells. […] Miniprotein incubations occurred for 90 min to reach binding equilibrium. […] After miniprotein incubations, the wells were washed to remove unbound ligand and treated according to manufacturer instructions for a DELFIA® (dissociation-enhanced lanthanide fluorescent immunoassay, Revvity Health Sciences). In brief, washed wells were incubated with 15 μL of 2 M HCl for 2 h at 37° C., after which 17 μL of 2 M NaOH and 30 μL of DELFIA® enhancement solution were added to each well and incubated for an additional 30 min. The remaining Eu reacted with the DELFIA® enhancer solution to generate fluorescence measured on the Envision instrument. Relative fluorescence units (RFUs) were measured as a function of test article concentration in order to calculate an IC50.
A whole cell binding assay was used to estimate the equilibrium binding affinity (KD) or binding inhibition constant (Ki) of miniprotein ligands to cells expressing a target of interest. Cells were dispensed into a 384-well plate and incubated at 37° C., in 5% CO2 overnight. The next day cells were gently washed once in assay buffer prior to addition of europium chelated ligand. […] For Ki determination, a single concentration (KD equivalent concentration) of europium-chelate miniprotein was added to each well followed immediately by the addition of unconjugated competing ligand over 12 different concentrations ranging from 100 times below and above expected Ki values as before. The plate was incubated for 1.5 h at room temperature to reach binding equilibrium. Cells were then washed three times at room temperature with 1×PBS followed by the addition of 2 M HCl and incubated for two h at 37° C. Following this step, 2 M NaOH and fluorescent inducer solution were added to each well and incubated for 30 minutes at room temperature according to the manufacturer's protocol (Perkin-ELMER DELFIA assay). Plates were read on an Envision plate reader and a curve-fitting model was applied to estimate KD and Ki values using GraphPad Prism software.
Engineered Nectin-4 miniproteins with further modified lysine residues (C298-C304; as described in Example 4B) were evaluated for their ability to bind to Nectin-4.

“Also recorded” adds a separate entry of the source. Like-named read-outs stand apart in the source and are kept apart here. Bridges are numbered along the chain shown (N, C = ends). Primed or numbered codes have the meaning given here. [ ]: non-standard residue; d: D form. The star is where a group is joined. DOTA = O=C(O)CN1CCN(CC(=O)O)CCN(CC(=O)*)CCN(CC(=O)O)CC1; Lys(Me3) = C[N+](C)(C)CCCC[C@H](N)C(=O)O; Cit = NC(=O)NCCC[C@H](N)C(=O)O; PEG4 = NCCOCCOCCOCCOCCC(=O)O; PEG4′ = not defined here

As for “C215 ({DOTA-PEG4′}-CEYDEEFFTALKRLRGGDICYYIKKKFKKVPKLCIEEILDKLGC-NH2; cysteine pairing not given here) [Compound C215]”, the internalization of radioconjugate result in the series on HT-1376 cells and in the series on MCF7 cells was “successfully internalized into cells” in each case. Besides, in [1], the “EC50 (microcurie/milliliter) for 225Ac radioconjugates” value turned out to be 0.086 microcurie/milliliter. In series [2], the “thermal stability, % parent remaining” value is reported as “remain stable over 60 min”.
“{DOTA-PEG4}-CEYDEEFFTALARLRGGDICQYIQAKFQYLPGQCIEEILDNLGCS-OH (disulfide 1-34, 20-44) [Compound C244]”: the half-life in series [3] and in series [3] (plasma) was over 12 h throughout. For the same molecule, the tissue uptake at 4 h amounted to 27.7 %ID/g in series [4] and 29.5 %ID/g in [5]. Besides, the tissue uptake at 24 h in series [4] worked out at 15.9 %ID/g. Further, the tissue uptake at 22 h in [5] was 17.8 %ID/g.
Take “{DOTA-PEG4}-CDYDEQFFTALA[Cit]LRGGDICEYIQA[Lys(Me3)]FQYLPGLCIEEILDNLGCS-OH (disulfide 1-34, 20-44 (inferred)) [Compound C260]”: in [3], the half-life is 11.2 h. Moreover, the half-life in series [3] (plasma) is over 12 h. In series [4], this molecule had a tissue uptake at 4 h of 12.8 %ID/g and a tissue uptake at 24 h of 7.36 %ID/g. In [5], this molecule showed a tissue uptake at 4 h of 11.6 %ID/g and a tissue uptake at 22 h of 6.92 %ID/g.
With “{DOTA-PEG4}-CEYDEQFFTALKALRGGDICYYIQASFNYLPDLCIEEILDNLGCS-OH (disulfide 1-34, 20-44 (inferred)) [Compound C113]”, the tissue uptake at 4 h in series [4] (111In-labeled miniprotein, SPECT/CT, kidneys, 4 h post-dosing, n=3 mice, read-out: Biodistribution, Kidneys, 4 h (% ID/g) Average) turned out to be 87.9 %ID/g. Besides, the tissue uptake at 24 h in series [4] (111In-labeled miniprotein, SPECT/CT, kidneys, 24 h post-dosing, n=3 mice, read-out: Biodistribution, Kidneys, 24 h (% ID/g) Average) is 42.7 %ID/g. For the same molecule, the “EC50 (microcurie/milliliter) for 225Ac radioconjugates” value in series [1] was 0.042 microcurie/milliliter.
On to `CC[C@H](C)[C@@H]1NC(=O)[C@H](Cc2ccc(O)cc2)NC(=O)[C@H](CCC(N)=O)NC(=O)[C@@H]2CSSC[C@@H](C(=O)N[C@@H](CO)C(=O)O)NC(=O)CNC(=O)[C@H](CC(C)C)NC(=O)[C@H](CC(N)=O)NC(=O)[C@H](CC(=O)O)NC(=O)[C@H](CC(C)C)NC(=O)[C@H]([C@@H](C)CC)NC(=O)[C@H](CCC(=O)O)NC(=O)[C@H](CCC(=O)O)NC(=O)[C@H]([C@@H](C)CC)NC(=O)[C@H](CSSC[C@H](NC(=O)CCOCCOCCOCCOCCNC(=O)CCCC[C@@H]3SC[C@@H]4NC(=O)N[C@@H]43)C(=O)N[C@@H](CCC(=O)O)C(=O)N[C@@H](Cc3ccc(O)cc3)C(=O)N[C@@H](CC(=O)O)C(=O)N[C@@H](CCC(=O)O)C(=O)N[C@@H](CCC(=O)O)C(=O)N[C@@H](Cc3ccccc3)C(=O)N[C@@H](Cc3ccccc3)C(=O)N[C@@H]([C@@H](C)O)C(=O)N[C@@H](C)C(=O)N[C@@H](CC(C)C)C(=O)N[C@@H](C)C(=O)N[C@@H](CCCNC(=N)N)C(=O)N[C@@H](CC(C)C)C(=O)N[C@@H](CCCNC(=N)N)C(=O)NCC(=O)NCC(=O)N[C@@H](CC(=O)O)C(=O)N[C@@H]([C@@H](C)CC)C(=O)N2)NC(=O)[C@H](CC(C)C)NC(=O)[C@H](C)NC(=O)[C@@H]2CCCN2C(=O)[C@H](CC(C)C)NC(=O)[C@H](Cc2ccc(O)cc2)NC(=O)[C@H](CCC(N)=O)NC(=O)[C@H](Cc2ccccc2)NC(=O)[C@H](CCCC[N+](C)(C)C)NC(=O)[C@H](C)NC(=O)[C@H](CCC(N)=O)NC1=O` [Compound C253], for which the “on-target binding to cell surface Nectin-4, HT-1376-P versus HT-1376-KO cells” value at Nectin-4 [6] is “potent and highly selective Nectin-4 targeting agent; also recorded: selective target binding”. Moreover, the “Background binding to un-transfected HEK293 cells” value in [7] was “low-background binding”. Moreover, on Nectin-4 [8], the “binding to endogenous Nectin-4 expressed on HT-1376 cells (FIG. 21)” value is reported as “high binding affinity”.
